Where “and” joins values, the source holds several entries; their conditions need not be identical. Equal values may be shown once. Read-outs that look alike come from different tables or passages of the source.
Experiments:
[1] = Fe3+ content per 500 mg compound (selection criterion 3); assay type: physicochemical
Description: 3. Appropriate equivalence of ferric ion per gram of compound. The potential ferric compound should contain enough ferric ions to effectively bind with dietary phosphate.

[2] = cited from earlier work
[3] = Harvey et al. 1998; cited from earlier work

O=C([O-])CN(CCN(CC(=O)[O-])CC(=O)O)CC(=O)[O-].[Fe+3] [ferric EDTA]
Fe^3+ content per 500 mg compound ([1]; per 500 mg compound, unit mg): 81 mg

O=C([O-])CN(CCO)CCN(CC(=O)[O-])CC(=O)[O-].[Fe+3] [ferric HEDTA]
Fe^3+ content per 500 mg compound ([1]; per 500 mg compound, unit mg): 85 mg

CC(=O)[O-].CC(=O)[O-].CC(=O)[O-].[Fe+3] [ferric acetate]
Fe^3+ content per 500 mg compound [1]: 120 mg

CC(=O)/C=C(/C)[O-].CC(=O)/C=C(/C)[O-].CC(=O)/C=C(/C)[O-].[Fe+3] [ferric acetylacetonate]
Fe^3+ content per 500 mg compound ([1]; per 500 mg compound, unit mg): 78 mg

O=C([O-])[O-].O=C([O-])[O-].O=C([O-])[O-].[Fe+3].[Fe+3] [ferric carbonate]
Fe^3+ content per 500 mg compound [1]: 191 mg | pKa of anionic group [2]: 10.3

C[N+](C)(C)CCO.O=C([O-])CC(O)(CC(=O)[O-])C(=O)[O-].[Fe+3] [ferric choline citrate]
Fe^3+ content per 500 mg compound [1]: 79 mg

O=C[O-].O=C[O-].O=C[O-].[Fe+3] [ferric formate]
Fe^3+ content per 500 mg compound [1]: 147 mg | pKa of anionic group [2]: pKa = 3.75

O=C([O-])/C=C/C(=O)[O-].O=C([O-])/C=C/C(=O)[O-].O=C([O-])/C=C/C(=O)[O-].[Fe+3].[Fe+3] [ferric fumarate]
Fe^3+ content per 500 mg compound ([1]; per 500 mg compound, unit mg): 125 mg | pKa of anionic group [2]: pKa = 3.02

O=C([O-])CC(O)C(=O)[O-].O=C([O-])CC(O)C(=O)[O-].O=C([O-])CC(O)C(=O)[O-].[Fe+3].[Fe+3] (stereo not drawn) [ferric malate]
Fe^3+ content per 500 mg compound ([1]; per 500 mg compound, unit mg): 110 mg | pKa of anionic group [2]: pKa = 3.4

CCCCC(CC)C(=O)[O-].CCCCC(CC)C(=O)[O-].CCCCC(CC)C(=O)[O-].[Fe+3] (stereo not drawn) [ferric octoate]
Fe^3+ content per 500 mg compound ([1]; per 500 mg compound, unit mg): 58 mg

O=C([O-])C(=O)[O-].O=C([O-])C(=O)[O-].O=C([O-])C(=O)[O-].[Fe+3].[Fe+3] [ferric oxalate]
Fe^3+ content per 500 mg compound ([1]; per 500 mg compound, unit mg): 142 mg | pKa of anionic group [2]: pKa = 1.25

NCC(=O)[O-].NCC(=O)[O-].NCC(=O)[O-].[Fe+3] [ferric triglycinate]
Fe^3+ content per 500 mg compound [1]: 100 mg | pKa of anionic group [2]: pKa = 2.35

Cc1occc(=O)c1[O-].Cc1occc(=O)c1[O-].Cc1occc(=O)c1[O-].[Fe+3] [ferric trimaltol]
Fe^3+ content per 500 mg compound ([1]; per 500 mg compound, unit mg): 65 mg | correcting iron deficiency [3]: capable of correcting iron deficiency

ferric ascorbate
Fe^3+ content per 500 mg compound ([1]; per 500 mg compound, unit mg): 121 mg | pKa of anionic group [2]: pKa = 4.04

ferric aspartate
Fe^3+ content per 500 mg compound ([1]; per 500 mg compound, unit mg): 62 mg | pKa of anionic group [2]: pKa = 1.99

ferric citrate [reference compound]
Fe^3+ content per 500 mg compound ([1]; per 500 mg compound, unit mg): 114 mg | pKa of anionic group [2]: pKa = 6.4

ferric gluconate
Fe^3+ content per 500 mg compound ([1]; per 500 mg compound, unit mg): 44 mg

ferric histidinate
Fe^3+ content per 500 mg compound ([1]; per 500 mg compound, unit mg): 54 mg

ferric oleate
Fe^3+ content per 500 mg compound ([1]; per 500 mg compound, unit mg): 31 mg

ferric picolinate
Fe^3+ content per 500 mg compound ([1]; per 500 mg compound, unit mg): 66 mg

ferric tartrate
Fe^3+ content per 500 mg compound ([1]; per 500 mg compound, unit mg): 56 mg and 100 mg | pKa of anionic group, pKa1 ([2]; first pKa): pKa1 = 2.98 | pKa of anionic group, pKa2 ([2]; second pKa): pKa2 = 4.34

Source: patent publication US9539284B2 (GLOBOASIA, LLC, priority 2006, dated 2017)
